# Article PMC3454376, “Salidroside Improves Behavioral and Histological Outcomes and Reduces Apoptosis via PI3K/Akt Signaling after Experimental Traumatic Brain Injury” (PLoS ONE, 2012)
# Test system: Bcl-2/Bax ratio
# Experiment: Western blot, whole cell and mitochondrial fraction
# Assay type: in vivo, mice
# Settings: 20 mg/kg ip 10 min after CCI
# Experimental: Three sets of experiments were performed. The first set was to investigate the protective effects of salidroside. All animals were randomized into 1 of 3 groups (sham injury, CCI + vehicle, CCI + SALD 20). Surgery/injury, behavioral testing, and tissue analyses were performed by different individuals. Behavioral testing and tissue analyses were performed by individuals blinded to the treatment group. Salidroside (Cayman Chemical, Ann Arbor, MI, USA) dissolved in normal saline (0.25 mL) or a corresponding volume of vehicle (saline) was administered intraperitoneally 10 min following injury. Testing after injury was completed as follows: 1) behavioral testing at days 1, 4, 7, 14, 21, and 28 (n = 8–10 mice/group); 2) cresyl violet staining at day 28 (n = 9 mice/group); 3) histology, determination of brain water content, and western blot analysis at day 1 or 3 (n = 5–6 mice/group). To determine the optimal dose of salidroside, a pilot study was performed using 2 different doses (20 and 50 mg/kg) administered 10 min after injury, and neurological deficits and tissue damage were evaluated as the main outcomes. […] Protein concentration was determined by Bradford reagent spectrophotometrically at A595. […] The relative intensity of protein signals was normalized to the corresponding β-actin intensity and was quantified by densitometric analysis with the use of Image J software. […]
structure (smiles),measurement,setting,value
"OC[C@H]1O[C@@H](OCCc2ccc(O)cc2)[C@H](O)[C@@H](O)[C@@H]1O [SALD, salidroside]","mitochondrial Bcl-2/Bax ratio, % of the level in vehicle injured brains","day 1, P<0.05",150.6%
same,"whole cell Bcl-2/Bax ratio, slight increase versus vehicle",whole cell level,did not reach statistical significance
